Assay results taken from patent publication US20070248705A1, “Agents for Activating the Transcription Factor Nrf2 and Foods Having Such Function” (KIRIN BEER KABUSHIKI KAISHA, priority 2004, published 2007).
“Also recorded” adds a separate entry of the source.

Assays:
ICAM-1 = ICAM-1 expression in vascular endothelial cells (HAEC), TNF-α stimulation, flow cytometry; type: cell-based, human; settings: TNF-α 1.25 ng/ml
Method: Normal human aorta endothelial cells (HAEC, available from Cambrex) were cultured in a φ100 mm dish using 10 ml of endothelial cell medium kit-2 (Takara Shuzo) at 37° C. in an atmosphere of 5% CO2. Here, 30 μg/ml isomerized hop extract, 10 μM sulforaphane (Sul), or 10 mM N-acetyl cysteine (NAC) was allowed to act overnight. Next, after stimulating with the addition of human TNF-α (ProSpec-Tany TechnoGene) at a final concentration of 1.25 ng/ml), the cells were detached using a reagent for subculturing (Takara Shuzo) and flow cytometry analysis was carried out. Here, biotin anti-human ICAM antibody or biotin anti-human VCAM antibody (available from eBioscience) was used as a primary antibody and PE conjugated streptavidin (available from eBioscience) was used as a secondary antibody. A flow cytometer used was a FACSort analyzer (Becton Dickinson).

CD36 = assay: Expression of genes controlled by Nrf2 in RAW264.7: CD36; type: cell-based, mouse; settings: RAW264.7, 3 μM, positive control
Method: (§1) A mouse macrophage cell line RAW264.7 was seeded on a φ60 mm dish (9×10^5 cells), 2 ml of a D-MEM medium (Invitrogen) supplemented with 10% fetal bovine serum (HyClone) and penicillin-streptomycin (100 units/ml and 100 μg/ml, respectively; Sigma) was added, and the dish was incubated at 37° C. in an atmosphere of 5% CO2 for 2 days. The medium was replaced with a fresh medium containing individual samples and incubation was continued for another 20 hours. Then, the total RNA was prepared using TRIzol (Invitrogen) and purified using a RNeasy Mini kit (Qiagen) and an RNase-free DNase set (Qiagen). Further, cDNA was synthesized from 5 μg of the purified total RNA using a Thermo Script RT-PCR system (Invitrogen), and the amount of mRNA expression of various genes was determined using a FastStart DNA Master SYBR Green I kit (Roche) and a Light Cycler (Roche).
(§2) The amount of expression of the various genes was corrected by the amount of expression of the housekeeping gene PO and calculated as a relative expression level (n=2, mean±standard deviation). […]

catalase 1 (CAT1) = assay: Expression of genes controlled by Nrf2 in RAW264.7: CAT1; type: cell-based, mouse; settings: RAW264.7, 3 μM, positive control
Method: as §1, §2

[1] = test system: thioredoxin reductase 1 (TXNRD1); assay: Expression of genes controlled by Nrf2 in RAW264.7: TXNRD1; type: cell-based, mouse; settings: RAW264.7, 3 μM, positive control
Method: as §1, §2

heme oxygenase 1 (HO1) = assay: Expression of genes controlled by Nrf2 in RAW264.7: HO1; type: cell-based, mouse; settings: RAW264.7, 3 μM, positive control
Method: as §1, §2

[2] = test system: glutathione S-transferase mu1 (GSTM1); assay: Expression of genes controlled by Nrf2 in RAW264.7: GSTM1; type: cell-based, mouse; settings: RAW264.7, 3 μM, positive control
Method: as §1, §2

[3] = test system: glutathione S-transferase pi2 (GSTP2); assay: Expression of genes controlled by Nrf2 in RAW264.7: GSTP2; type: cell-based, mouse; settings: RAW264.7, 3 μM, positive control
Method: as §1, §2

[4] = test system: NAD(P)H:quinone oxidoreductase (NQO1); assay: Expression of genes controlled by Nrf2 in RAW264.7: NQO1; type: cell-based, mouse; settings: RAW264.7, 3 μM, positive control
Method: as §1, §2

[5] = test system: glutamate cysteine ligase modifier subunit (GCLM); assay: Expression of genes controlled by Nrf2 in RAW264.7: GCLM; type: cell-based, mouse; settings: RAW264.7, 3 μM, positive control
Method: as §1, §2

[6] = test system: glucose-6-phosphate dehydrogenase 2 (G6PD2); assay: Expression of genes controlled by Nrf2 in RAW264.7: G6PD2; type: cell-based, mouse; settings: RAW264.7, 3 μM, positive control
Method: as §1, §2

[7] = test system: glucose-6-phosphate dehydrogenase, X-linked (G6PDX); assay: Expression of genes controlled by Nrf2 in RAW264.7: G6PDX; type: cell-based, mouse; settings: RAW264.7, 3 μM, positive control
Method: as §1, §2

[8] = test system: mouse macrophage cell line RAW264.7; assay: Amount of intracellular glutathione; type: cell-based; settings: RAW264.7, 3 μM, positive control
Method: A mouse macrophage cell line RAW264.7 was seeded on a φ60 mm dish (7×10^5 cells), 2 ml of a D-MEM medium (Invitrogen) supplemented with 10% fetal bovine serum (HyClone) and penicillin-streptomycin (100 units/ml and 100 μg/ml, respectively; Sigma) was added, and the dish was incubated at 37° C. in an atmosphere of 5% CO2 for 2 days. The medium was replaced with a fresh medium containing individual samples and incubation was continued for another 20 hours. The samples added were isohumulone (IH(F)) and isohumulone (IcH(G)) at a concentration of 25 μM. The cells were recovered, broken by ultrasonication, and centrifuged to obtain the supernatant, and the amount of the total intracellular glutathione was measured using a glutathione assay kit (Cayman Chemical) (n=2, mean±standard deviation). As a positive control, 15dPGJ2 (Cayman Chemical) was used.

[9] = test system: mouse macrophage cell line RAW264.7; assay: Suppressive action on cell death by hydrogen peroxide; type: cell-based; settings: RAW264.7, 3 μM, positive control
Method: A mouse macrophage cell line RAW264.7 (6×10^4 cells/well) was incubated on a 96-well plate in 100 μl of a D-MEM medium (Invitrogen) containing individual samples, 10% fetal bovine serum (HyClone), and penicillin-streptomycin (100 units/ml and 100 μg/ml, respectively; Sigma) at 37° C. in an atmosphere of 5% CO2 overnight. The samples added were isohumulone (IH(F)) and isohumulone (IcH(G)) at a concentration of 25 μM. Hydrogen peroxide (Wako Pure Chemical Industries) was added hereto at a final concentration of 0.8 or 1.0 mM and incubation was continued for another 2 hours. Then, adsorption at 440 nm was measured using a microplate reader (Power Wave 200, Bio-Tek Instruments) with a cell growth reagent WST-1 (Roche Diagnostics). The cell survival rate for each sample was calculated by setting the value without hydrogen peroxide as 100% (n=2, mean±standard variation). As a positive control, 15dPGJ2 (Cayman Chemical) was used.

TNF-α = assay: Suppression of TNF-α production by macrophages (TPA and IFN-γ); type: cell-based, mouse; settings: RAW264.7, TPA 400 nM and IFN-γ 10 units/ml, positive control
Method: A mouse macrophage cell line RAW264.7 (4×10^4 cells/well) was seeded on a 96-well plate, […] of a D-MEM medium (Invitrogen) containing each sample, 10% fetal bovine serum (HyClone), and penicillin-streptomycin (100 units/ml and 100 μg/ml, respectively; Sigma) was added, and the plate was incubated at 37° C. in an atmosphere of 5% CO2 for 4 hours. Then 150 μl of a medium containing TPA (phorbol 12-tetradecanoate 13-acetate, Sigma), mouse IFN-γ (interferon-γ, eBioscience), and each sample was added and incubation was carried out for 24 hours. TPA and IFN-γ were added at a final concentration of 400 nM and 10 units/ml, respectively. As samples, isomerized hop extract was added at a concentration of 5, 10, 20, and 30 μ/ml and isohumulone (IH(F)) and isohumulone (IcH(G)) were added individually at a concentration of 5, 10, 20, and 40 μM.
After completing incubation, the amount of TNF-α in the culture fluid was measured using a mouse TNF-α ELISA kit(eBioscience). The amount of TNF-α was expressed as a relative value by setting the value for the control as 100% (n=3, mean±standard variation). As a positive control, 15dPGJ2 (Cayman Chemical) was used.

[10] = test system: quinone reductase (QR) activity in mouse hepatoma Hepa1c1c7 cells; assay: Induction of quinone reductase (QR) activity; type: cell-based; settings: Hepa1c1c7 cells, 0.6, 1.7, 5, and 15 μM, 48 hours
Method: It has been known that quinone reductase (QR) activity is increased by increasing the expression of NAD(P)H:quinone oxidoreductase (NQO1) by Nrf2 activation (Proc Natl Acad Sci USA. 101, 10446-51 (2004)). Accordingly, isohumulones were allowed to act on mouse hepatoma Hepa1c1c7 cells (available from Dainippon Pharmaceutical Co., Ltd.) to examine whether the QR activity was induced.
The QR activity was measured in accordance with the method described in Analytical Biochemistry 169, 328-336 (1988).
A mouse hepatoma cell line Hepa1c1c7 was seeded on a 96-well plate (7-10×10^3 cells/well), 50 μl each of an α-MEM medium (Invitrogen) supplemented with 10% fetal bovine serum (HyClone) and penicillin-streptomycin (100 units/ml and 100 μg/ml, respectively; Sigma) was added, and the plate was incubated at […] in an atmosphere of 5% CO2 overnight. Next, the culture medium was replaced with a medium containing isomerized hop extract individually at a concentration of 1.9, 5.6, 16.7, or 50 μg/ml, or with a medium containing humulone (H), cohumulone (cH), adhumulone (aH), isohumulone (IH), isohumulone (IcH), or isohumulone (IaH) individually at a concentration of 0.6, 1.7, 5, and 15 μM and the plate was further incubated for 48 hours. Then, the cells in each well were broken using 0.08% digitonin and a 2 mM EDTA solution and absorption at 610 nm was measured by a menadione-formazan system using a microplate reader (Power Wave 200, Bio-Tek Instruments).
The QR inducing activity was calculated as a relative activity setting the activity of cells without addition to be 1 (n=3, mean±standard variation). Sulforaphane (Sul, available from Sigma) was used as a positive control.

CC(=O)N[C@@H](CS)C(=O)O [N-acetyl cysteine]
expression of ICAM-1 (ICAM-1; 10 mM overnight): Such changes are also recognized

C[S+]([O-])CCCCN=C=S (stereo not drawn) [sulforaphane]
expression of ICAM-1 (ICAM-1; 10 μM overnight): Such changes are also recognized

CCCCC/C=C/C=C1/C(=O)C=C[C@@H]1C/C=C\CCCC(=O)O [15dPGJ2, 15-deoxy-D12,14-prostaglandin J2, reference compound]
expression of CD36 (CD36): augmented the expression | expression of CAT1 (catalase 1 (CAT1)): augmented the expression | expression of TRNRD1 [1]: augmented the expression | expression of HO1 (heme oxygenase 1 (HO1)): augmented the expression | expression of GSTM1 [2]: augmented the expression | expression of GSTP2 [3]: augmented the expression | expression of NQO1 [4]: augmented the expression | expression of GCLM [5]: augmented the expression | expression of G6PD2 [6]: augmented the expression | expression of G6PDX [7]: augmented the expression | amount of the total intracellular glutathione [8]: Increased the amount of the total intracellular glutathione | cell death by hydrogen peroxide (cell survival rate) ([9]; hydrogen peroxide 0.8 mM): suppressed cell death | cell death by hydrogen peroxide (cell survival rate) ([9]; hydrogen peroxide 1.0 mM): suppressed cell death | TNF-α production (TNF-α): concentration-dependently suppressed

CCC(C)C(=O)C1=C(O)C(CC=C(C)C)=C(O)C(O)(CC=C(C)C)C1=O (stereo not drawn) [adhumulone, reference compound]
QR inducing activity [10]: no clear change

CC(C)=CCC1=C(O)C(O)(CC=C(C)C)C(=O)C(C(=O)C(C)C)=C1O (stereo not drawn) [cohumulone, reference compound]
QR inducing activity [10]: no clear change

CCC(C)C(=O)C1=C(O)C(O)(C(=O)CC=C(C)C)C(CC=C(C)C)C1=O (stereo not drawn) [IaH]
QR inducing activity [10]: Concentration-dependent QR inducing activity

CC(C)=CCC(=O)C1(O)C(O)=C(C(=O)CC(C)C)C(=O)C1CC=C(C)C (stereo not drawn) [IH (H), isohumulone]
QR inducing activity [10]: activity was higher in isohumulones having a higher trans form content

CC(C)=CCC(=O)C1(O)C(O)=C(C(=O)CC(C)C)C(=O)C1CC=C(C)C (stereo not drawn) [IH, isohumulone]
QR inducing activity [10]: Concentration-dependent QR inducing activity; also recorded: higher activity than isohumulone (IaH)

CC(C)=CCC(=O)C1(O)C(O)=C(C(=O)CC(C)C)C(=O)C1CC=C(C)C (stereo not drawn) [IH (E), isohumulone]
QR inducing activity [10]: activity was higher in isohumulones having a higher trans form content

CC(C)=CCC(=O)C1(O)C(O)=C(C(=O)C(C)C)C(=O)C1CC=C(C)C (stereo not drawn) [IcH]
QR inducing activity [10]: higher activity than isohumulone (IaH) | QR inducing activity ([10]; listed as ICH): Concentration-dependent QR inducing activity
